{
  "source": "paper PMC11649115",
  "about": "“In vitro safety evaluation of dopamine D3R antagonist, R-VK4-116, as a potential medication for the treatment of opioid use disorder” (PLOS ONE, 2024)",
  "key": {"CYP2C8": {"target": "T1, CYP2C8 (Homo sapiens, UniProt P10632)", "T1 sequence (P10632 1-490)": "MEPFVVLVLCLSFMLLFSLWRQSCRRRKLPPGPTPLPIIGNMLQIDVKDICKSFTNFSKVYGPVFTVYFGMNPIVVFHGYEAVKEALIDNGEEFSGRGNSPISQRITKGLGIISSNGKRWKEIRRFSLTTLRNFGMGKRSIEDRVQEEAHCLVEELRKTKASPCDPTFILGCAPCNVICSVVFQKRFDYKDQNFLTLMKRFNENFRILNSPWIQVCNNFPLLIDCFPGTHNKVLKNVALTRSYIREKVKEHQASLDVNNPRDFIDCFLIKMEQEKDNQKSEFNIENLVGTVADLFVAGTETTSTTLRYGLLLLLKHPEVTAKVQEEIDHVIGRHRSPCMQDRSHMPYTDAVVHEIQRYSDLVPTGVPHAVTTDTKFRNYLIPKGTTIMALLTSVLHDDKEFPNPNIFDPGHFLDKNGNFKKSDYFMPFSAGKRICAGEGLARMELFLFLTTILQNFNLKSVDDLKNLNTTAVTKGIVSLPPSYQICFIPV", "experiment": "CYP inhibition in human liver microsomes", "conditions": "human liver microsomes"}, "MATE2-K": {"target": "T2, MATE2-K (Homo sapiens, UniProt Q86VL8)", "T2 construct": "expressed in transfected cells; host or cells: MDCK-II cells", "T2 sequence (Q86VL8 1-566 isoform Q86VL8-3)": "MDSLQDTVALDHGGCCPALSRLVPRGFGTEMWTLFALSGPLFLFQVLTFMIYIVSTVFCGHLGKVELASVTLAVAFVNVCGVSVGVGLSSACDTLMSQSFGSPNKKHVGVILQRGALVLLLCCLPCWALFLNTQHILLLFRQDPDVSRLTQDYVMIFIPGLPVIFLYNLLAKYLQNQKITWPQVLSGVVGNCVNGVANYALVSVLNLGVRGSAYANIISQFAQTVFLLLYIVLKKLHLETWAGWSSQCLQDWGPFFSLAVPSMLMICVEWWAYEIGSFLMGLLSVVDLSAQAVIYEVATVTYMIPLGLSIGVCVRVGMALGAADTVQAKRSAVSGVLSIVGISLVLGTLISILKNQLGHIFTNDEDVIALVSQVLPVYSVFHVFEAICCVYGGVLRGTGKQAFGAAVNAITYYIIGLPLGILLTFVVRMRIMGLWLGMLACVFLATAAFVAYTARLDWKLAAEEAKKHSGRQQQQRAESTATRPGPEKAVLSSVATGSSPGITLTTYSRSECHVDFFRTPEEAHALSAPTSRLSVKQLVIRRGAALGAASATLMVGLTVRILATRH", "experiment": "Transporter mediated assay (substrate/inhibitor), MDCK-II cells", "format": "in vitro ADME", "description": "The MDCK-II cells were treated to express the transporter of interest. […] For the uptake assay, the net transporter-mediated uptake-rate (V) of the substrate by each SLC transporter was calculated as follows: Transporter–mediatedupdaterate(pmol/min/cm^2)=(Cellularaccumulationincellsexpressingthetransporter)−(Meancellularaccumulationincontrolcells)/Surfacearea×incubationtime\n(§1) Fold of activity and percent inhibition were determined as follows: Foldofactivity=(Meanuptakerate)transporterexpressingcells/(Meanuptakerate)controlcells Percentinhibition=100−100×(Transport‐mediatedupdaterate)withinhibitor/(Transport‐mediatedupdaterate)vehiclecontrol"}, "D3R": {"tested_on": "D3R", "design": "method as in PMID 31526003", "conditions": "read-out: antagonist effect on D3R (IC50); cited from earlier work"}, "[1]": {"experiment": "Metabolite identification in liver microsomes", "format": "in vitro ADME", "conditions": "10 μM R-VK4-116, 120 min", "protocol": "Reactions were stopped by removing 100 μl aliquots at 120 min and mixing with 200 μl of acetonitrile. Following brief vortexing and centrifugation, the supernatant was transferred to an HPLC vial fitted with a 300 μl glass insert for metabolite analysis using a Sciex 4000QTrap mass spectrometer."}, "MARK3": {"target": "T3, MARK3 (Homo sapiens, UniProt P27448)", "T3 construct": "made in house; host or cells: E. coli BL21-derived host (T7 phage) or HEK-293", "T3 sequence (P27448 whole entry)": "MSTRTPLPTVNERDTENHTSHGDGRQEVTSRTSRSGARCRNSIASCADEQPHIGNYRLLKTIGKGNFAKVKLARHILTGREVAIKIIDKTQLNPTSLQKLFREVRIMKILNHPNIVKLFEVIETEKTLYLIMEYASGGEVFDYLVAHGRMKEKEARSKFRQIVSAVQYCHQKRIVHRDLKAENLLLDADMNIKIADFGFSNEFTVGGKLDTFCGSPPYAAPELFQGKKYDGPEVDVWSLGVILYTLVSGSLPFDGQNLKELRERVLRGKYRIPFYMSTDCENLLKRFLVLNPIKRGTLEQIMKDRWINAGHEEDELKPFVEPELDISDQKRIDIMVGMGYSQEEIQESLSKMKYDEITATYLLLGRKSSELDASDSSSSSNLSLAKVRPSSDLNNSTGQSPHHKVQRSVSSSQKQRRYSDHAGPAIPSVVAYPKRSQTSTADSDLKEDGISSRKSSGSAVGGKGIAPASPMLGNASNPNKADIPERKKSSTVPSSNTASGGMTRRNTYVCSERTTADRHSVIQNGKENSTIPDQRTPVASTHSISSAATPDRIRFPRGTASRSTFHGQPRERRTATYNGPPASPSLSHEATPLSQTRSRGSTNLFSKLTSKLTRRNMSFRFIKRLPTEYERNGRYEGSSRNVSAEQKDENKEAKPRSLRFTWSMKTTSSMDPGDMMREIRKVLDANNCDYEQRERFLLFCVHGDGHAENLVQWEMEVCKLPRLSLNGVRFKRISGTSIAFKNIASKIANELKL", "experiment": "KINOMEscan binding (% Ctrl, Kd)", "description": "(§2) Briefly, E. coli host derived from the BL21 strain were grown to log-phase and infected with kinase-tagged T7 phage and incubated with shaking at 32°C until lysis. The lysates were centrifuged and filtered to remove cell debris. The remaining kinases were produced in HEK-293 cells and subsequently tagged with DNA for qPCR detection. Streptavidin-coated magnetic beads were treated with biotinylated small molecule ligands to generate affinity resins for kinase assays. The liganded beads were blocked with excess biotin and washed to remove unbound ligand and to reduce non-specific phage binding. […] Selectivity Score (S-score) was a quantitative measure of compound selectivity. […] The binding constants (Kds) were also determined with a standard dose-response curve using the Hill equation and Levenberg-Marquardt algorithm [24, 25]."}, "CYP2C19": {"target": "CYP2C19 (Homo sapiens, UniProt P33261)", "sequence (P33261 whole entry)": "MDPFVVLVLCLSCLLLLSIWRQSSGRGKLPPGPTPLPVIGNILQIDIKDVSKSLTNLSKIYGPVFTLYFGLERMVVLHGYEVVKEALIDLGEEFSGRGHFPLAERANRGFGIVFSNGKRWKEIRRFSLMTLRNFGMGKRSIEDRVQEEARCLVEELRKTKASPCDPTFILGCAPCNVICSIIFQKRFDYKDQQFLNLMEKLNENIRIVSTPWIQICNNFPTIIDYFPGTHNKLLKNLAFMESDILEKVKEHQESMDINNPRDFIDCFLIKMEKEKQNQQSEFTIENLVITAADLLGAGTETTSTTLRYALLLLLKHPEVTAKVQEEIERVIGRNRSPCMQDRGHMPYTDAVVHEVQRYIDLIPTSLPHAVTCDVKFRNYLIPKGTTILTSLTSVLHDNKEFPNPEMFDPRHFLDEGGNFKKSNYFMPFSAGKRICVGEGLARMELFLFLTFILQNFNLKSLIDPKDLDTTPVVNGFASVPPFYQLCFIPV", "experiment": "CYP inhibition in human liver microsomes", "conditions": "human liver microsomes"}, "HPK1": {"target": "T4, HPK1 (Homo sapiens, UniProt Q92918)", "T4 construct": "made in house; host or cells: E. coli BL21-derived host (T7 phage) or HEK-293", "T4 sequence (Q92918 whole entry)": "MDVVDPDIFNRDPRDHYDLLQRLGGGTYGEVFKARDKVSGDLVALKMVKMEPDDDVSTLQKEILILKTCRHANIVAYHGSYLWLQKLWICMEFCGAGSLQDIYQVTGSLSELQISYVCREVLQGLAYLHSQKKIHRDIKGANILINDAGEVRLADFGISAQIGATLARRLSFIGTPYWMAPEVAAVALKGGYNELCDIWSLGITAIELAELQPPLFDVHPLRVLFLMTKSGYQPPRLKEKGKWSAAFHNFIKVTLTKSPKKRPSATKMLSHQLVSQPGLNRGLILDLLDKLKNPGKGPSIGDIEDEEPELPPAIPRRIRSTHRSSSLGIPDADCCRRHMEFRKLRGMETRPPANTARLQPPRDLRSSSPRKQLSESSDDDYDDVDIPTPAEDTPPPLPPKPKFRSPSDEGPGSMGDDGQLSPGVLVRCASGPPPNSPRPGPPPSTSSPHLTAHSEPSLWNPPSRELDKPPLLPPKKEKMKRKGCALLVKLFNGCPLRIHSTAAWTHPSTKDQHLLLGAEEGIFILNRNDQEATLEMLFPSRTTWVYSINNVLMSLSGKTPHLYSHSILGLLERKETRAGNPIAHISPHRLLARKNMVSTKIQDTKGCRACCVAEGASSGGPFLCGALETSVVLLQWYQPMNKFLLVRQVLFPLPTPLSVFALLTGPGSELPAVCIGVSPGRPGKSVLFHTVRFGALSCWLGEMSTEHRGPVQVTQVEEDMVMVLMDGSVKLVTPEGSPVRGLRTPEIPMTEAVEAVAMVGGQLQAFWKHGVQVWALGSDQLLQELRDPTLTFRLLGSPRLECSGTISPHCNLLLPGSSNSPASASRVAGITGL", "experiment": "KINOMEscan binding (% Ctrl, Kd)", "description": "as §2"}, "MATE1": {"target": "T5, MATE1 (Homo sapiens, UniProt Q96FL8)", "T5 construct": "expressed in transfected cells; host or cells: MDCK-II cells", "T5 sequence (Q96FL8 1-570)": "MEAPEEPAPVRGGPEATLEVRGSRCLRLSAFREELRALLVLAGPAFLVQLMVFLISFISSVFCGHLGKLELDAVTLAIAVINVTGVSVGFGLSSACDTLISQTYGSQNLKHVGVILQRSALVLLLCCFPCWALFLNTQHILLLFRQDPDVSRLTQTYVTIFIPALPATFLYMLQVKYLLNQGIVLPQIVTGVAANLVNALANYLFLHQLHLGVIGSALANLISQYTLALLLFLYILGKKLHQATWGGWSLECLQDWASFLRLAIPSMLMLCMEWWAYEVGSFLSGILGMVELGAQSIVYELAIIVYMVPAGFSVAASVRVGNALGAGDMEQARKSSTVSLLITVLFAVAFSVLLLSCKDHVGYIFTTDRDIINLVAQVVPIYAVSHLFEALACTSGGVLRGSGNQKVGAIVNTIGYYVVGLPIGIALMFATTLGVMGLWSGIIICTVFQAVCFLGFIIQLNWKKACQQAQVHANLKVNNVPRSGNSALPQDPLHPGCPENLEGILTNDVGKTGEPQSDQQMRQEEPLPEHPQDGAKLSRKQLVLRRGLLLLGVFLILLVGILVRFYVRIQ", "experiment": "Transporter mediated assay (substrate/inhibitor), MDCK-II cells", "format": "in vitro ADME", "description": "The MDCK-II cells were treated to express the transporter of interest. The transport of each probe substrate was determined by radiometric detection (Fig 1 in S1 File). […] For the uptake assay, the net transporter-mediated uptake-rate (V) of the substrate by each SLC transporter was calculated as follows: Transporter–mediatedupdaterate(pmol/min/cm^2)=(Cellularaccumulationincellsexpressingthetransporter)−(Meancellularaccumulationincontrolcells)/Surfacearea×incubationtime\nas §1"}, "[2]": {"experiment": "Metabolic stability in hepatocyte", "conditions": "Sprague Dawley, rat, hepatocytes in suspension", "description": "(§3) CYP3A4 substrate Midazolam (10 μM) was prepared and incubated in the same manner. […] In addition, in vitro half-life (t1/2, min) and intrinsic clearance (CLint, μl/min/10^6 cells) were calculated [10, 11]."}, "rat hepatocytes": {"tested_on": "rat hepatocytes", "experiment": "Metabolic stability in hepatocyte", "conditions": "rat hepatocytes", "description": "as §3"}, "[3]": {"conditions": "11-point curve 0.001 to 10 μM, read-out: binding constant (Kd)"}},
  "note": "Read-outs that look alike come from different tables or passages of the source.",
  "data": [
    {"compound": "CCc1cc(Cl)c(OC)c(N2CCN(CC(O)CCNC(=O)c3cc4ccccc4[nH]3)CC2)c1", "note": "(stereo not shown) [R-VK4-116, N-(4-(4-(3-chloro-5-ethyl-2-methoxyphenyl)piperazin-1-yl)-3-hydroxybutyl)-1H-indole-2-carboxamide]", "values": [
      {"measurement": "CYP2C8 inhibition", "setting": "CYP2C8; up to 100 μM", "result": "did not inhibit CYP significantly"},
      {"measurement": "activity at 20 min, 0.1 µM", "setting": "CYP2C8; human, probe paclitaxel", "result": "85.9 ± 18.2", "unit": "%"},
      {"measurement": "activity at 20 min, 0.3 µM", "setting": "CYP2C8; human, probe paclitaxel", "result": "68.2 ± 2.8", "unit": "%"},
      {"measurement": "activity at 20 min, 1 µM", "setting": "CYP2C8; human, probe paclitaxel", "result": "70.5 ± 7.1", "unit": "%"},
      {"measurement": "activity at 20 min, 3 µM", "setting": "CYP2C8; human, probe paclitaxel", "result": "95.7 ± 11.2", "unit": "%"},
      {"measurement": "activity at 20 min, 10 µM", "setting": "CYP2C8; human, probe paclitaxel", "result": "89.8 ± 19.7", "unit": "%"},
      {"measurement": "activity at 20 min, 30 µM", "setting": "CYP2C8; human, probe paclitaxel", "result": "75.8 ± 4.5", "unit": "%"},
      {"measurement": "activity at 20 min, 60 µM", "setting": "CYP2C8; human, probe paclitaxel", "result": "75.3 ± 6.4", "unit": "%"},
      {"measurement": "activity at 20 min, 100 µM", "setting": "CYP2C8; human, probe paclitaxel", "result": "80.6 ± 15.2", "unit": "%"},
      {"measurement": "fold difference in mean uptake rate (substrate test)", "setting": "MATE2-K; 1 μM, transporter cells vs control cells", "result": "< 2", "unit": "fold"},
      {"measurement": "inhibition at 10 µM", "setting": "MATE2-K; human, polarized monolayer of MDCK-II cells expressing MATE2-K, 0.1% BSA, 10 μM", "result": "37.8 ± 9.26", "unit": "%"},
      {"measurement": "IC50", "setting": "D3R", "result": 0.35, "unit": "µM"},
      {"measurement": "% Area", "setting": "[1]; dog liver microsomes, MRM product ion 116.1", "result": 10.4, "unit": "%"},
      {"measurement": "% Area", "setting": "[1]; dog liver microsomes, MRM product ion 144.1", "result": 28.6, "unit": "%"},
      {"measurement": "% Area", "setting": "[1]; human liver microsomes, MRM product ion 116.1", "result": 62.4, "unit": "%"},
      {"measurement": "% Area", "setting": "[1]; human liver microsomes, MRM product ion 144.1", "result": 4.1, "unit": "%"},
      {"measurement": "% Area", "setting": "[1]; rat liver microsomes, MRM product ion 116.1", "result": 8.2, "unit": "%"},
      {"measurement": "% Area", "setting": "[1]; rat liver microsomes, MRM product ion 144.1", "result": 86.1, "unit": "%"},
      {"measurement": "Kd", "setting": "MARK3; [3]", "result": "> 10", "unit": "µM"},
      {"measurement": "remaining binding at 1 µM", "setting": "MARK3; read-out: %Control", "result": "< 35", "unit": "%"},
      {"measurement": "remaining binding at 1 µM", "setting": "MARK3; read-out: Gene (S-score with % control): MARK3", "result": 0, "unit": "%"},
      {"measurement": "CYP2C19 inhibition", "setting": "CYP2C19; up to 100 μM", "result": "did not inhibit CYP significantly"},
      {"measurement": "activity at 20 min, 0.1 µM", "setting": "CYP2C19; human, probe mephenytoin", "result": "102 ± 4.6", "unit": "%"},
      {"measurement": "activity at 20 min, 0.3 µM", "setting": "CYP2C19; human, probe mephenytoin", "result": "96.2 ± 5", "unit": "%"},
      {"measurement": "activity at 20 min, 1 µM", "setting": "CYP2C19; human, probe mephenytoin", "result": "97.3 ± 2.2", "unit": "%"},
      {"measurement": "activity at 20 min, 3 µM", "setting": "CYP2C19; human, probe mephenytoin", "result": "95.9 ± 3.6", "unit": "%"},
      {"measurement": "activity at 20 min, 10 µM", "setting": "CYP2C19; human, probe mephenytoin", "result": "99.6 ± 3.3", "unit": "%"},
      {"measurement": "activity at 20 min, 30 µM", "setting": "CYP2C19; human, probe mephenytoin", "result": "96.7 ± 3.5", "unit": "%"},
      {"measurement": "activity at 20 min, 60 µM", "setting": "CYP2C19; human, probe mephenytoin", "result": "95 ± 5.4", "unit": "%"},
      {"measurement": "activity at 20 min, 100 µM", "setting": "CYP2C19; human, probe mephenytoin", "result": "99.7 ± 3.4", "unit": "%"},
      {"measurement": "Kd", "setting": "HPK1; [3]", "result": "> 10", "unit": "µM"},
      {"measurement": "remaining binding at 1 µM", "setting": "HPK1; read-out: %Control", "result": "< 35", "unit": "%"},
      {"measurement": "remaining binding at 1 µM", "setting": "HPK1; read-out: Gene (S-score with % control): HPK1", "result": 29, "unit": "%"},
      {"measurement": "fold difference in mean uptake rate (substrate test)", "setting": "MATE1; MATE1, 1 μM, transporter cells vs control cells", "result": "< 2", "unit": "fold"},
      {"measurement": "inhibition at 10 µM", "setting": "MATE1; human, polarized monolayer of MDCK-II cells expressing MATE1, MATE1, 0.1% BSA, 10 μM", "result": "19.4 ± 7.57", "unit": "%"},
      {"measurement": "half-life at 0.5 μM", "setting": "[2]", "result": 1.44, "unit": "h"},
      {"measurement": "half-life at 10 μM", "setting": "[2]", "result": 2.82, "unit": "h"},
      {"measurement": "hepatocyte CLint at 0.5 μM", "setting": "[2]", "result": 16, "unit": "µL/min/1e6 cells"},
      {"measurement": "hepatocyte CLint at 10 μM", "setting": "[2]", "result": 8.2, "unit": "µL/min/1e6 cells"},
      {"measurement": "% remaining Vs T = 0 min", "setting": "rat hepatocytes; 0.5 μM, 0 min", "result": 100.0, "unit": "%"},
      {"measurement": "% remaining Vs T = 0 min", "setting": "rat hepatocytes; 0.5 μM, 30 min", "result": 85.0, "unit": "%"},
      {"measurement": "% remaining Vs T = 0 min", "setting": "rat hepatocytes; 0.5 μM, 60 min", "result": 55.6, "unit": "%"},
      {"measurement": "% remaining Vs T = 0 min", "setting": "rat hepatocytes; 0.5 μM, 90 min", "result": 42.4, "unit": "%"},
      {"measurement": "% remaining Vs T = 0 min", "setting": "rat hepatocytes; 0.5 μM, 120 min", "result": 42.5, "unit": "%"},
      {"measurement": "% remaining Vs T = 0 min", "setting": "rat hepatocytes; 10 μM, 0 min", "result": 100.0, "unit": "%"},
      {"measurement": "% remaining Vs T = 0 min", "setting": "rat hepatocytes; 10 μM, 30 min", "result": 95.8, "unit": "%"},
      {"measurement": "% remaining Vs T = 0 min", "setting": "rat hepatocytes; 10 μM, 60 min", "result": 92.5, "unit": "%"},
      {"measurement": "% remaining Vs T = 0 min", "setting": "rat hepatocytes; 10 μM, 90 min", "result": 66.7, "unit": "%"},
      {"measurement": "% remaining Vs T = 0 min", "setting": "rat hepatocytes; 10 μM, 120 min", "result": 64.6, "unit": "%"}
    ]}
  ]
}
